# Source: patent US4977151A, “Ethanone oximes and pharmaceutical compositions thereof” (Mitsubishi Kasei Corporation, priority 1987, dated 1990)
# Structures can show the parent of a compound that is named as a salt.
# Tested on: stress-induced gastric ulcer
# Test: Anti-stress ulcer test: inhibition of stress-induced gastric ulcer in rats
# Assay type: in vivo, rat (Douryu male rats)
# Settings: Rattus norvegicus, po, 15 h, read-out: Inhibition Rate of Stress-Induced Ulcer (%)
# Description: Anti-stress ulcer tests were conducted as described below. Douryu non-fasted male rats (Shizuoka Laboratory Animal Center, body weight: 220-250 g), five in each group, were immobilized within a stress cage made of wire net and immersed in a water bath at 22 ±1° C. to a depth of xiphoid for loading them with stresses. The rats were clubbed to death after 15 hours and their stomachs were extirpated. After injecting about 15 ml of an aqueous 1% formalin solution into each of the stomachs, they were immersed in an aqueous 1 % formalin solution for about 10 minutes and fixed. After fixation, the stomachs were incised along the greater curvature. The longer diameter of each ulcer generated in the glandular portion was measured under stereomicroscope (X10) and the sum of them was defined to be an ulcer coefficient (mm). Chemicals to be tested were suspended in an aqueous 1 % gum arabic solution and orally administrated at a dose of 2 ml/kg, 30 min before the stress loading. For the control group, an aqueous 1 % gum arabic solution only was administrated, and their ulcer coefficient was compared to that of the group administrated with the tested chemicals to calculate the suppression rate of the tested chemicals. The dosage was 50 mg/kg for each of the compounds. The test compounds in the table are identified in corresponding Examples hereinafter described.
row,SMILES,inhibition in vivo at 200 mg/kg [%]
1,"CN=C(NC#N)NCCSCc1nc[nH]c1C [Cimethidine, reference compound]",69.7

# Same assay, conditions: Rattus norvegicus; 50 mg/kg, oral, 30 min before stress loading; water immersion stress 22 ±1° C., 15 hours; vs control group; read-out: Inhibition Rate of Stress-Induced Ulcer (%)
row,SMILES,inhibition in vivo at 50 mg/kg [%]
1,"CN1CCN(C/C(=N\O)c2ccc(N(c3ccccc3)c3ccccc3)cc2)CC1 [Example 7, (Z)-2-(4-methylpiperazin-1-yl)-1-(4-diphenylamino-phenyl)-ethanone oxime]",74.6
2,"CN1CCN(C/C(=N\O)c2ccc(NS(=O)(=O)c3ccccc3)cc2)CC1 [Example 31, (Z)-2-(4-methylpiperazin-1-yl)-1-(4-benzenesulfonyl-amino-phenyl)-ethanone oxime]",48.4
3,"CN1CCN(C/C(=N\O)c2ccc(Cc3ccccc3)cc2)CC1 [Example 5, (Z)-2-(4-methylpiperazin-1-yl)-1-(4-benzyl-phenyl)-ethanone oxime]",100
4,"CN1CCN(C/C(=N\O)c2ccc(-n3ccnc3)cc2)CC1 [Example 23, (Z)-2-(4-methylpiperazin-1-yl)-1-(4-(imidazol-1-yl)phenyl)-ethanone oxime]",50.5
5,CC(=O)N1c2ccccc2Sc2ccc(/C(CN3CCCCC3)=N/O)cc21 [Example 13],100
6,"CN1CCN(C/C(=N\O)c2ccc(Sc3ccccc3)cc2)CC1 [Example 1, (Z)-2-(4-methyl-piperazin-1-yl)-1-(4-phenylthio-phenyl)-ethanone oxime hydrochloride]",76.9
7,"CN1CCN(C/C(=N\O)c2ccc(CCc3ccccc3)cc2)CC1 [Example 8, (Z)-2-(4-methylpiperazin-1-yl)-1-(4-(2-phenylethyl)-phenyl)-ethanone oxime]",65.7
8,"O/N=C(\CN1CCCCC1)c1ccc(-n2ccnc2)cc1 [Example 24, (Z)-2-(piperidin-1-yl)-1-(4-(imidazol-1-yl)-phenyl)-ethanone oxime]",41.5
9,"O/N=C(\CN1CCCCC1)c1ccc(CCc2ccccc2)cc1 [Example 11, (Z)-2-(piperidin-1-yl)-1-(4-(2-phenylethyl)-phenyl)-ethanone oxime]",53
10,"CCC1c2ccccc2CCc2ccc(/C(CN3CCN(C)CC3)=N/O)cc21 (centres unmarked) [Example 19, (Z)-2-(4-methylpiperazin-1-yl)-1-(10,11-dihydro-5H-5-ethyldibenzo[a,b]cyclohepten-3-yl)-ethanone oxime]",90.7
11,"CC1c2ccccc2CCc2ccc(/C(CN3CCN(C)CC3)=N/O)cc21 (centres unmarked) [Example 18, (Z)-2-(4-methylpiperazin-1-yl)-1-(10,11-dihydro-5H-5-methyldibenzo[a,b]cyclohepten-3-yl)-ethanone oxime]",100
12,CN1CCN(C/C(=N\O)c2ccc3c(c2)Sc2ccccc2S3)CC1 [Example 14],51.9
13,"CC(C)Oc1ccccc1CCc1ccc(/C(CN2CCN(C)CC2)=N/O)cc1 [Example 40, (Z)-2-(4-methylpiperazin-1-yl)-1-(4-(2-(2-isopropoxy-phenyl)-ethyl)-phenyl)-ethanone oxime]",41.9
14,"CN1CCN(C/C(=N\O)c2ccc(C3CCCCC3)cc2)CC1 [Example 3, (Z)-2-(4-methylpiperazin-1-yl)-1-(4-cyclohexyl-phenyl)-ethanone oxime]",59.7
15,"CC(=O)N(c1ccccc1)c1ccc(/C(CN2CCN(C)CC2)=N/O)cc1 [Example 6, (Z)-2-(4-methylpiperazin-1-yl)-1-(4-(N-acetyl-N-phenylamino)-phenyl)-ethanone oxime]",85.7
16,"CN1CCN(C/C(=N\O)c2ccc(S(=O)(=O)c3ccccc3)cc2)CC1 [Example 20, (Z)-2-(4-methylpiperazin-1-yl)-1-(4-phenylsulfonyl-phenyl)-ethanone oxime]",80.3
17,"CN1CCN(C/C(=N\O)c2ccc(OCc3ccccc3)cc2)CC1 [Example 33, (Z)-2-(4-methyl-piperazin-1-yl)-1-(4-benzyloxy-phenyl)-ethanone oxime hydrochloride]",41.4
18,"CCOc1cc(CCc2ccccc2)ccc1/C(CN1CCN(C)CC1)=N/O [Example 34, (Z)-2-(4-methylpiperazin-1-yl)-1-(2-ethoxy-4-(2-phenylethyl)-phenyl)-ethanone oxime hydrochloride]",100
19,"CN1CCN(C/C(=N\O)c2ccc3c(c2)Nc2ccccc2S3)CC1 [Example 22, (Z)-2-(4-methylpiperazin-1-yl)-1-(4-phenothiazin-2-yl)-ethanone oxime]",50.6
